Assays:
[1] = tested on: gastric mucosal blood flow; assay: Activity of increasing gastric mucosal blood flow; assay type: in vivo, wistar male rat; settings: rat, urethane-anesthesia, 220 μg/kg intravenous, 60 minutes after administration
Procedure: (§1) With respect to anti-ulcer effect of the compounds having the general formula (I), there were carried out a test of ulcer induced by pylorus-ligation, which ulcer is induced mainly due to offensive factors; a test of ulcer induced by hydrochloric acid/ethanol, which ulcer is induced mainly due to defensive factors such as mucosal blood flow and mucus; and a test of ulcer induced by a stress of restraint plus water-immersion, which ulcer is induced due to both of offensive and defensive factors. Further, there were carried out a test of ulcer induced by acetic acid as a chronic ulcer model and a test of cure-prolonged ulcer induced by acetic acid. Also, there was examined an activity of increasing gastric mucosal blood flow, which activity brings about acceleration of regeneration of the gastric mucosa. As test compounds, hydrochloride salts were used.
An amount of the mucosal blood flow in the body of the stomach of a wistar male rat weighing 220 to 240 g under urethane-anesthesia was measured by means of a laser doppler blood flow meter. As test compounds, there were used the compound of the present invention and, as comparative compound, FRG-8813. Each of them was intravenously administered in a dose of 220 μg/kg. A percentage of increase of the blood flow was calculated 60 minutes after the administration. Five rats were used for each group for the test.

[2] = tested on: ulcer induced by a stress of restraint plus water-immersion; assay: Test of ulcer induced by a stress of restraint plus water-immersion; assay type: in vivo, ddY male mouse; settings: 7 h; mouse, 30 mg/kg oral, 15 minutes before the load of the stress; hydrochloride salts; read-out: Percentage of inhibition of ulcer formation
Procedure: as §1
A ddY male mouse weighing 20 to 25 g, which had fasted for 18 hours, was put into a stress cage, and was loaded with a stress by immersing it in a water tank at 23° C., to a level of a xiphoid. After 7 hours, the animal was sacrificed by dislocating the cervical vertebrae and the stomach was taken out therefrom. The length of the ulcer generated on the glandular stomach was measured and the total thereof was regarded as the ulcer coefficient (mm).
To control group, only the medium for the medicament solution was orally administered in an amount of 0.1 ml/10 g (body weight) 15 minutes before the load of the stress.
(§2) The obtained results were subjected to the same formula as in the test of ulcer induced by pylorus-ligation, to calculate a percentage of inhibition of ulcer formation. Six rats were used in each group for the test.

[3] = tested on: ulcer induced by pylorus-ligation; assay: Test of ulcer induced by pylorus-ligation; assay type: in vivo, wistar male rat; settings: 14 h; rat, 100 mg/kg, in the duodenum immediately after ligating the pylorus; hydrochloride salts; read-out: Percentage of inhibition of ulcer formation
Procedure: as §1
The pylorus of a wistar male rat weighing 230 to 250 g, which had fasted for 48 hours, was ligated under ether-anesthesia, according to a usual method. After 14 hours, the animal was sacrificed by ether and the stomach was taken out therefrom.
The area of the ulcer generated on the fore-stomach was measured and the total area of the ulcer per rat was classified into the following six grades to give ulcer coefficients (Table 4).
Each of them was suspended in 0.5% methylcellulose solution and administered in the duodenum immediately after ligating the pylorus, in a dose of 100 mg/kg (body weight), respectively. To control group, only the medium for the medicament solution was administered in an amount of 0.25 ml/100 g (body weight).
The obtained results were subjected to the following formula to calculate a percentage of inhibition of ulcer formation. Six rats were used in each group for the test: [formula]

[4] = tested on: ulcer induced by acetic acid; assay: Test of ulcer induced by acetic acid; assay type: in vivo, wistar male rat; settings: rat, 15 mg/kg oral, twice a day from 2 days after generation of the ulcer
Procedure: as §1
Into the junction of the glandular stomach and the antrum, of a wistar male rat weighing 220 to 240 g, was injected subserosally […] of 20% acetic acid to generate an ulcer induced by acetic acid. […] Each of them was suspended in 0.5% methylcellulose solution, and administered orally in a dose of 15 mg/kg, twice a day (in the morning and in the evening) from 2 days after the generation of the ulcer for days, respectively. The animal was sacrificed by ether on the day after the last administration, and the stomach was taken out therefrom. The area of the ulcer was measured.
The obtained results were subjected to the following formula to calculate a percentage of improvement for curing ulcer. To control group, only the medium for the medicament solution was administered in an amount of 0.5 ml/100 g (body weight). Twenty rats were used in each group for the test. [formula]

[5] = tested on: cure-prolonged ulcer induced by acetic acid; assay: Test of cure-prolonged ulcer induced by acetic acid; assay type: in vivo, wistar male rat; settings: rat, 50 mg/kg oral, twice a day; cure prolonged with indomethacin 1 mg/kg s.c. for 13 days
Procedure: as §1
Into the junction of the glandular stomach and the antrum, of a wistar male rat weighing 220 to 240 g, was injected subserosally 30 μl of 20% acetic acid to generate an ulcer induced by acetic acid. From 2 days after the generation of the ulcer, indomethacin was injected subcutaneously in the regions of back of the rat in a dose of 1 mg/kg, once a day for 13 days to prolong the cure of the ulcer induced by acetic acid.
Each of them was suspended in 0.5% methylcellulose solution, and administered orally in a dose of 50 mg/kg, twice a day (in the morning and in the evening) from 13 days, respectively. The animal was sacrificed by ether on the day after the last administration, and the stomach was taken out therefrom. The area of the ulcer was measured. The obtained results were subjected to the following formula to calculate a percentage of improvement for curing ulcer. To control group, only the medium for the medicament solution was administered in an amount of 0.5 ml/100 g (body weight). Twenty rats were used in each group for the test. [formula]

[6] = tested on: ulcer induced by hydrochloric acid/ethanol; assay: Test of ulcer induced by hydrochloric acid/ethanol; assay type: in vivo, wistar male rat; settings: 1 h; rat, 30 mg/kg oral, 30 minutes before hydrochloric acid/ethanol; hydrochloride salts; read-out: Percentage of inhibition of ulcer formation
Procedure: as §1
To a wistar male rat weighing 220 to 240 g, which had fasted and thirsted for 24 hours, was orally administered 150 mM hydrochloric acid/70% ethanol solution in an amount of 5 ml/kg (body weight). After 1 hour, the animal was sacrificed by dislocating the cervical vertebrae and the stomach was taken out therefrom. The length of the ulcer generated on the glandular stomach was measured and the total thereof was regarded as the ulcer coefficient (mm).
To control group, only the medium for the medicament solution was orally administered in an amount of […] (body weight), 30 minutes before the administration of hydrochloric acid/ethanol.
as §2

CCOC(=O)NCC[S+]([O-])CC(=O)NC/C=C\COc1cccc(CN2CCCCC2)c1 (stereo not drawn) [Example 75, N-[4-[3-(piperidinomethyl)phenoxy]-cis-2-butenyl]-2-[2-(ethoxycarbonylamino)ethylsulfinyl]acetamide] was tested, and the “Percentage of increase of blood flow” value [1] was 15%, the inhibition in vivo at 30 mg/kg [2] was 87% and the inhibition in vivo at 100 mg/kg [3] was 96%. The “Percentage of improvement for curing ulcer” value [4] was 24%, the “Percentage of improvement for curing ulcer” value [5] was 49% and the inhibition in vivo at 30 mg/kg [6] was 82%.
